Tested on: Hep3B cells
Assay: TT LLNs-mediated luciferase transfection assay
Assay type: cell-based, human
Conditions: for K1 (average luminescence intensity, Kn = ΣRLIn/4): level 1 of the component; for K2 (average luminescence intensity, Kn = ΣRLIn/4): level 2 of the component; for K3 (average luminescence intensity, Kn = ΣRLIn/4): level 3 of the component; for K4 (average luminescence intensity, Kn = ΣRLIn/4): level 4 of the component
Description: R. et. al. J. Am. Chem. Soc. 2011, 133, 8995-9004). After formulation, the freshly formed […] were used immediately for cell transfection. For in vivo studies, the freshly prepared LLNs were then dialyzed against PBS buffer using Slide-A-Lyzer dialysis cassettes (3.5 K MWCO, Life Technologies, Grand island, N.Y.). […] Entrapment efficiency of LLNs was determined using the Ribogreen assay reported previously (Love Kevin, T. et. al. Proc. Natl. Acad. Sci. […] Chen, D. et. al. J. Am. Chem. Soc. 2012, 134, 6948-6951). TT LLNs-Mediated Luciferase Transfection Assay. The human hepatocellular carcinoma cell line Hep3B was purchased from American Type Culture Collection (Manassas, Va.) and maintained at 37° C. with 5% CO2 in Eagle's Minimum Essential Medium (MEM) supplemented with 10% heat inactivated FBS. […] Transfections were performed in triplicate. After 6 h of transfection, culture medium containing TT LLNs was carefully removed, and 50 μL of serum-free EMEM and 50 μL of Bright-Glo luciferase substrate were mixed and added to each well. […] Free Flue mRNA served as a negative control. Orthogonal Array Experimental Design. In order to identify a preferred molar ratio of the formulation components, an orthogonal array experiment design was utilized. Four formulation components were assigned in the following orthogonal experiments with a fixed TT/mRNA ratio (10/1). TT3S-DOPE LLNs 1-1 to 1-16 were prepared according to the orthogonal array design table L16(4)^4 and used to transfect Hep3B cells (Table 2). […] On the basis of the result of the first round of nanoparticle formulation, the levels of each factor were further refined, and the second round orthogonal experiment with 16 formulations TT3-DOPE LLNs 2-1 to 2-16 was conducted (Table 4). A similar analysis was performed as described above.

Compound	ΔK = Kmax − Kmin (impact of the component on mRNA delivery) (first round of TT3-DOPE LLNs)	K1 (average luminescence intensity, Kn = ΣRLIn/4) (first round of TT3-DOPE LLNs)	K2 (average luminescence intensity, Kn = ΣRLIn/4) (first round of TT3-DOPE LLNs)	K3 (average luminescence intensity, Kn = ΣRLIn/4) (first round of TT3-DOPE LLNs)	K4 (average luminescence intensity, Kn = ΣRLIn/4) (first round of TT3-DOPE LLNs)	ΔK = Kmax − Kmin (impact of the component on mRNA delivery) (second round of TT3-DOPE LLNs)	K1 (average luminescence intensity, Kn = ΣRLIn/4) (second round of TT3-DOPE LLNs)	K2 (average luminescence intensity, Kn = ΣRLIn/4) (second round of TT3-DOPE LLNs)	K3 (average luminescence intensity, Kn = ΣRLIn/4) (second round of TT3-DOPE LLNs)	K4 (average luminescence intensity, Kn = ΣRLIn/4) (second round of TT3-DOPE LLNs)
CCCCCCCC/C=C\CCCCCCCC(=O)OC[C@H](COP(=O)(O)OCCN)OC(=O)CCCCCCC/C=C\CCCCCCCC [DOPE, 1,2-dioleoyl-sn-glycero-3-phosphoethanolamine]	1231	325	369	188	1419	19529	33465	38426	52995	44816
CC(C)CCC[C@@H](C)[C@H]1CC[C@H]2[C@@H]3CC=C4C[C@@H](O)CC[C@]4(C)[C@H]3CC[C@]12C [Cholesterol, cholesterol]	1121	108	1229	428	535	18025	29028	35974	47647	57052
1,2-dimyristoyl-sn-glycerol, methoxypolyethylene glycol-2000 [DMG-PEG2000]	1121	1295	407	424	174	43788	56896	56833	42863	13109

From patent US10369122B2, “Benzene-1,3,5-tricarboxamide derivatives and uses thereof” (OHIO STATE INNOVATION FOUNDATION, priority 2015, dated 2019)
